Reference: patent US8741836B2, “Polypeptides” (Novo Nordisk A/S, priority 2011, dated 2014)
Starred links: 1 amine or outer side, 2 acyl side, 3 side chain; linkers in the order of their positions; H or OH if unused. Positions of bridges follow the written chain, without caps; N, C: chain ends. Non-standard residues stand in square brackets, D forms with d. Residues, ends and D or L forms follow the SMILES beside them. *: point of attachment. C20 diacid = O=C(O)CCCCCCCCCCCCCCCCCCC(=O)*; C18 diacid = O=C(O)CCCCCCCCCCCCCCCCC(=O)*; γGlu = O=C(O)[C@H](CCC(=O)[*:2])N[*:1]; Orn = NCCC[C@H](N)C(=O)O; AEEA = NCCOCCOCC(=O)O

Test system: ad libitum fed rat
Assay: Assay (I) efficacy testing on appetite (food intake) using an ad libitum fed rat model
Assay type: in vivo, Sprague Dawley (SD) rats
From the text: In the following examples reference is made to the following Assays: • Assay (I)—Experimental protocol for efficacy testing on appetite using an ad libitum fed rat model • ASSAY (II)a—Functional assay—Human calcitonin and amylin receptor assay • ASSAY (II)b—Functional assay—Rat calcitonin and rat amylin receptor assays • ASSAY (III)—ThT fibrillation assays for the assessment of physical stability of protein formulations • ASSAY (IV)—Determination of solubility • ASSAY (V)—Determination of binding to the human amylin receptor • ASSAY (VI)—Determination of the binding to the rat amylin receptor • ASSAY (VII)—Determination of binding to the human calcitonin receptor • ASSAY (VIII)—Determination of binding to the rat calcitonin receptor • ASSAY (IX)—pK—Determination of T½ in mini-pig • ASSAY (X)—pK—Determination of T½ in rat Assay (I)—Experimental protocol for Efficacy Testing on Appetite Using an Ad Libitum Fed Rat Model
Sprague Dawley (SD) rats from Taconic Europe, Denmark are used for the experiments. The rats have a body weight 200-250 g at the start of experiment. The rats arrive at least 10-14 days before start of experiment to allow acclimatization to experimental settings. During this period the animals are handled at least 2 times. After arrival rats are housed individually for one week in a reversed light/dark phase (meaning that lights are off during daytime and on during nighttime) […]. Since rats are normally active and eat their major part of their daily food intake during the dark period, rats are dosed in the morning right before lights are turned off. This set-up results in the lowest data variation and highest test sensitivity. The experiment is conducted in the rats' home cages and rats have free access to food and water throughout the acclimatization period and the experiment period. Each dose of derivative is tested in a group of 5-8 rats. A vehicle group of 6-8 rats is included in each set of testing. Rats are dosed once according to body weight with a 0.01-3 mg/kg solution administered intraperitoneally (ip), orally (po) or subcutaneously (sc). The time of dosing is recorded for each group. After dosing, the rats are returned to their home cages, where they then have access to food and water. The food consumption is recorded individually continuously by on-line registration or manually every hour for 7 hours, and then after 24 h and sometimes 48 h. At the end of the experimental session, the animals are euthanised.
The individual data are recorded in Microsoft excel sheets. Outliers are excluded after applying the Grubbs statistical evaluation test for outliers, and the result is presented graphically using the GraphPad Prism program.

## CC[C@H](C)[C@H](NC(=O)[C@@H]1CCCN1C(=O)CNC(=O)[C@H](Cc1ccccc1)NC(=O)[C@H](CC(N)=O)NC(=O)[C@H](CC(N)=O)NC(=O)[C@H](CO)NC(=O)[C@H](CO)NC(=O)[C@H](CCCNC(=N)N)NC(=O)[C@H](Cc1c[nH]cn1)NC(=O)[C@H](CC(C)C)NC(=O)[C@H](Cc1ccccc1)NC(=O)[C@H](CCC(=O)O)NC(=O)[C@H](C)NC(=O)[C@H](CC(C)C)NC(=O)[C@H](CCCNC(=N)N)NC(=O)[C@H](CCC(N)=O)NC(=O)[C@@H](NC(=O)[C@H](C)NC(=O)[C@@H]1CSSC[C@H](NC(=O)[C@H](CCC(=O)O)NC(=O)CC[C@H](NC(=O)CCCCCCCCCCCCCCCCCCC(=O)O)C(=O)O)C(=O)N[C@@H](CC(N)=O)C(=O)N[C@@H]([C@@H](C)O)C(=O)N[C@@H](C)C(=O)N[C@@H]([C@@H](C)O)C(=O)N1)[C@@H](C)O)C(=O)N[C@@H](CC(C)C)C(=O)N1CCC[C@H]1C(=O)N1CCC[C@H]1C(=O)N[C@H](C(=O)N[C@@H](CC(N)=O)C(=O)N[C@H](C(=O)NCC(=O)N[C@@H](CO)C(=O)N[C@@H](CC(N)=O)C(=O)N[C@H](C(=O)N1CCC[C@H]1C(N)=O)[C@@H](C)O)C(C)C)[C@@H](C)O [Example 10, N-alpha-[(S)-4-Carboxy-4-(19-carboxynonadecanoylamino)butyryl]-[Glu1,Glu14,His17,Arg18,Pro37]-pramlintide] ({C20 diacid-γGlu}-ECNTATCATQRLAEFLHRSSNNFGPILPPTNVGSNTP-NH2; disulfide 2-7 (inferred))
  Food intake reduction 0-24 h 3 nmol/kg (%): 50%
  Food intake reduction 24-48 h 3 nmol/kg (%): 40%

## CC[C@H](C)[C@H](NC(=O)[C@@H]1CCCN1C(=O)CNC(=O)[C@H](Cc1ccccc1)NC(=O)[C@H](CC(N)=O)NC(=O)[C@H](CC(N)=O)NC(=O)[C@H](CO)NC(=O)[C@H](CO)NC(=O)[C@H](Cc1c[nH]cn1)NC(=O)[C@H](Cc1c[nH]cn1)NC(=O)[C@H](CC(C)C)NC(=O)[C@H](Cc1ccccc1)NC(=O)[C@H](CCC(=O)O)NC(=O)[C@H](C)NC(=O)[C@H](CC(C)C)NC(=O)[C@H](CCCNC(=N)N)NC(=O)[C@H](CCC(N)=O)NC(=O)[C@@H](NC(=O)[C@H](C)NC(=O)[C@@H]1CSSC[C@H](NC(=O)[C@H](Cc2c[nH]cn2)NC(=O)[C@H](Cc2c[nH]cn2)NC(=O)[C@H](Cc2c[nH]cn2)NC(=O)CC[C@H](NC(=O)CCCCCCCCCCCCCCCCCCC(=O)O)C(=O)O)C(=O)N[C@@H](CC(N)=O)C(=O)N[C@@H]([C@@H](C)O)C(=O)N[C@@H](C)C(=O)N[C@@H]([C@@H](C)O)C(=O)N1)[C@@H](C)O)C(=O)N[C@@H](CC(C)C)C(=O)N1CCC[C@H]1C(=O)N1CCC[C@H]1C(=O)N[C@H](C(=O)N[C@@H](CC(N)=O)C(=O)N[C@H](C(=O)NCC(=O)N[C@@H](CO)C(=O)N[C@@H](CC(N)=O)C(=O)N[C@H](C(=O)N[C@@H](Cc1ccc(O)cc1)C(N)=O)[C@@H](C)O)C(C)C)[C@@H](C)O [Example 11, N-alpha-[(S)-4-Carboxy-4-(19-carboxynonadecanoylamino)butyryl]-His-His-[His1,Glu14,His17]-pramlintide] ({C20 diacid-γGlu}-HHHCNTATCATQRLAEFLHHSSNNFGPILPPTNVGSNTY-NH2; disulfide 4-9 (inferred); C-terminus assumed)
  Food intake reduction 0-24 h 30 nmol/kg (%): 87%
  Food intake reduction 24-48 h 30 nmol/kg (%): 92%

## CC[C@H](C)[C@H](NC(=O)[C@@H]1CCCN1C(=O)CNC(=O)[C@H](Cc1ccccc1)NC(=O)[C@H](CC(N)=O)NC(=O)[C@H](CC(N)=O)NC(=O)[C@H](CO)NC(=O)[C@H](CO)NC(=O)[C@H](CCCNC(=N)N)NC(=O)[C@H](Cc1c[nH]cn1)NC(=O)[C@H](CC(C)C)NC(=O)[C@H](Cc1ccccc1)NC(=O)[C@H](CCC(=O)O)NC(=O)[C@H](C)NC(=O)[C@H](CC(C)C)NC(=O)[C@H](CCCNC(=N)N)NC(=O)[C@H](CCC(N)=O)NC(=O)[C@@H](NC(=O)[C@H](C)NC(=O)[C@@H]1CSSC[C@H](NC(=O)[C@H](CCCN)NC(=O)[C@@H](CCCNC(=N)N)NC(=O)[C@@H](CCCNC(=N)N)NC(=O)COCCOCCNC(=O)COCCOCCNC(=O)CC[C@H](NC(=O)CCCCCCCCCCCCCCCCC(=O)O)C(=O)O)C(=O)N[C@@H](CC(N)=O)C(=O)N[C@@H]([C@@H](C)O)C(=O)N[C@@H](C)C(=O)N[C@@H]([C@@H](C)O)C(=O)N1)[C@@H](C)O)C(=O)N[C@@H](CC(C)C)C(=O)N1CCC[C@H]1C(=O)N1CCC[C@H]1C(=O)N[C@H](C(=O)N[C@@H](CC(N)=O)C(=O)N[C@H](C(=O)NCC(=O)N[C@@H](CO)C(=O)N[C@@H](CC(N)=O)C(=O)N[C@H](C(=O)N[C@@H](Cc1ccc(O)cc1)C(N)=O)[C@@H](C)O)C(C)C)[C@@H](C)O [Example 120, N-alpha-[2-(2-{2-[2-(2-{2-[(S)-4-Carboxy-4-(17-carboxyheptadecanoylamino)butyrylamino]ethoxy}ethoxy)acetylamino]ethoxy}ethoxy)acetyl]-D-Arg-D-Arg-[Orn1,Glu14,His17,Arg18]-pramlintide] ({C18 diacid-γGlu-AEEA-AEEA}-[dR][dR][Orn]CNTATCATQRLAEFLHRSSNNFGPILPPTNVGSNTY-NH2; disulfide 4-9 (inferred))
  Food intake reduction 0-24 h 3 nmol/kg (%): 53%
  Food intake reduction 24-48 h 3 nmol/kg (%): 2%

## CC[C@H](C)[C@H](NC(=O)[C@@H]1CCCN1C(=O)CNC(=O)[C@H](Cc1ccccc1)NC(=O)[C@H](CC(N)=O)NC(=O)[C@H](CC(N)=O)NC(=O)[C@H](CO)NC(=O)[C@H](CO)NC(=O)[C@H](Cc1c[nH]cn1)NC(=O)[C@H](Cc1c[nH]cn1)NC(=O)[C@H](CC(C)C)NC(=O)[C@H](Cc1ccccc1)NC(=O)[C@H](CCC(=O)O)NC(=O)[C@H](C)NC(=O)[C@H](CC(C)C)NC(=O)[C@H](CCCNC(=N)N)NC(=O)[C@H](CCC(N)=O)NC(=O)[C@@H](NC(=O)[C@H](C)NC(=O)[C@@H]1CSSC[C@H](NC(=O)[C@H](Cc2c[nH]cn2)NC(=O)CC[C@H](NC(=O)CCCCCCCCCCCCCCCCCCC(=O)O)C(=O)O)C(=O)N[C@@H](CC(N)=O)C(=O)N[C@@H]([C@@H](C)O)C(=O)N[C@@H](C)C(=O)N[C@@H]([C@@H](C)O)C(=O)N1)[C@@H](C)O)C(=O)N[C@@H](CC(C)C)C(=O)N1CCC[C@H]1C(=O)N1CCC[C@H]1C(=O)N[C@H](C(=O)N[C@@H](CC(N)=O)C(=O)N[C@H](C(=O)NCC(=O)N[C@@H](CO)C(=O)N[C@@H](CC(N)=O)C(=O)N[C@H](C(=O)N[C@@H](Cc1ccc(O)cc1)C(N)=O)[C@@H](C)O)C(C)C)[C@@H](C)O [Example 18, N-alpha-[(S)-4-Carboxy-4-(19-carboxynonadecanoylamino)butyryl]-[His1,Glu14,His17]-pramlintide] ({C20 diacid-γGlu}-HCNTATCATQRLAEFLHHSSNNFGPILPPTNVGSNTY-NH2; disulfide 2-7)
  Food intake reduction 0-24 h 3 nmol/kg (%): 40%
  Food intake reduction 24-48 h 3 nmol/kg (%): 32%

## CC[C@H](C)[C@H](NC(=O)[C@@H]1CCCN1C(=O)CNC(=O)[C@H](Cc1ccccc1)NC(=O)[C@H](CC(N)=O)NC(=O)[C@H](CC(N)=O)NC(=O)[C@H](CO)NC(=O)[C@H](CO)NC(=O)[C@H](CCCNC(=N)N)NC(=O)[C@H](Cc1c[nH]cn1)NC(=O)[C@H](CC(C)C)NC(=O)[C@H](Cc1ccccc1)NC(=O)[C@H](CCC(=O)O)NC(=O)[C@H](C)NC(=O)[C@H](CC(C)C)NC(=O)[C@H](CCCNC(=N)N)NC(=O)[C@H](CCC(N)=O)NC(=O)[C@@H](NC(=O)[C@H](C)NC(=O)[C@@H]1CSSC[C@H](NC(=O)[C@H](Cc2c[nH]cn2)NC(=O)CC[C@H](NC(=O)CCCCCCCCCCCCCCCCCCC(=O)O)C(=O)O)C(=O)N[C@@H](CC(N)=O)C(=O)N[C@@H]([C@@H](C)O)C(=O)N[C@@H](C)C(=O)N[C@@H]([C@@H](C)O)C(=O)N1)[C@@H](C)O)C(=O)N[C@@H](CC(C)C)C(=O)N1CCC[C@H]1C(=O)N1CCC[C@H]1C(=O)N[C@H](C(=O)N[C@@H](CC(N)=O)C(=O)N[C@H](C(=O)NCC(=O)N[C@@H](CO)C(=O)N[C@@H](CC(N)=O)C(=O)N[C@H](C(=O)N[C@@H](Cc1ccc(O)cc1)C(N)=O)[C@@H](C)O)C(C)C)[C@@H](C)O [Example 1, N-alpha-[(S)-4-Carboxy-4-(19-carboxynonadecanoylamino)butyryl]-[His1,Glu14,His17,Arg18]-pramlintide] ({C20 diacid-γGlu}-HCNTATCATQRLAEFLHRSSNNFGPILPPTNVGSNTY-NH2; disulfide 2-7 (inferred); C-terminus assumed)
  Food intake reduction 0-24 h 3 nmol/kg (%): 50%
  Food intake reduction 24-48 h 3 nmol/kg (%): 45%
  Food intake reduction 0-24 h 30 nmol/kg (%): 93%
  Food intake reduction 24-48 h 30 nmol/kg (%): 92%
